Test results as given in patent US6482984B2 (priority 2000, dated 2002).

Tests used:
Type in all cases: in vivo
[1] = test system: powdery mildew of wheat (Erysiphe graminis forma specialis tritici); assay: Activity against powdery mildew of wheat (protective spray, potted wheat seedlings); conditions: 1 ppm active ingredient; wheat seedlings c.v. Frühgold; dusted with spores 24 hours after spraying; scored visually after 7 days; untreated plants infected to 90%
Experimental: (§1) The active ingredients were formulated as a 10% strength emulsion in a mixture of 63% by weight of cyclohexanone and 27% by weight of emulsifier and diluted to the desired concentration with water.
Leaves of potted wheat seedlings c.v. “Frühgold” were sprayed to run off point with an aqueous preparation of active ingredient which had been prepared using a stock solution of 10% of active ingredient, 63% of cyclohexanone and 27% of emulsifier and, 24 hours after the spray coating had dried on, dusted with spores of powdery mildew of wheat (Erysiphe graminis forma specialis tritici). The test plants were subsequently placed in a greenhouse at 20-24° C. and 60-90% relative atmospheric humidity. After 7 days, the extent of the mildew development was scored visually in % infection of the total leaf area.

[2] = test system: Puccinia recondita; assay: Curative activity against Puccinia recondita on wheat (leaf rust of wheat); conditions: 16 ppm active ingredient; wheat seedlings c.v. Kanzler; sprayed the day after infection (curative); 7 days in greenhouse; untreated plants infected to 95%
Experimental: as §1
Leaves of potted wheat seedlings c.v. “Kanzler” were dusted with leaf rust spores (Puccinia recondita). The pots were then placed for 24 hours in a chamber with high atmospheric humidity (90 to 95%) at 20 to 22° C. During this time, the spores germinated, and the germinal tubes penetrated the leaf tissue. The next day, the infected plants were sprayed to run off point with an aqueous preparation of active ingredient which had been prepared using a stock solution of 10% of active ingredient, 63% of cyclohexanone and 27% of emulsifier. After the spray coating had dried on, the test plants were cultivated for 7 days in a greenhouse at 20-22° C. and a relative atmospheric humidity of 65-70%. The extent of rust development on the leaves was then determined.

[3] = test system: Pyricularia oryzae; conditions: 63 ppm active ingredient; rice seedlings c.v. Tai-Nong 67; inoculated the day after spraying (protective); 6 days; determined visually; untreated plants infected to 85%

SMILES	extent of the mildew development, % infection of the total leaf area [1]	extent of rust development on the leaves (infection) [2] [%]	extent of the development of the infection on the leaves [3] [%]
CNC(=O)/C(=N/OC)c1ccccc1COc1ccc(/C(C)=N/OC)cc1C [compound B]	25%	25	40
CNC(=O)/C(=N/OC)c1ccccc1COc1ccc(OC(C)/C(C)=N/OC)cc1C (stereo not shown) [I-1, 2-Methoxyimino-2-{2-[4-(2-methoxyimino-1-methyl-propoxy)-2-methylphenoxymethyl]phenyl}-N-methyl-acetamide]	no infection		
CNC(=O)/C(=N/OC)c1ccccc1COc1ccccc1C [compound A]	60%	60	25
